Source: patent US20090209510A1, “Novel Method of Treating Hyperlipidemia” (TAKEDA PHARMACEUTICAL COMPANY LIMITED, priority 2005, published 2009)

Key:
Hartley guinea pigs [1] = assay: Lowering effect on plasma cholesterol by use in combination of Compound X and atorvastatin (Example 2); type: in vivo, guinea pig; conditions: guinea pigs on 0.05% cholesterol/10% corn oil diet, orally once a day 14 days, average ± standard error (N = 12)
Hartley guinea pigs [2] = assay: Influence of Compound X and atorvastatin on liver pathological change (Example 4); type: in vivo, guinea pig; conditions: for Total cholesterol: guinea pigs on 0.05% cholesterol/10% corn oil diet, 30 mg/kg alone, orally once a day 14 days, average ± standard error (N = 12)
Procedure: Furthermore, the liver was removed and pathological evaluation was conducted.

Hartley guinea pigs [3] = conditions: plasma, atorvastatin 50 mg/kg alone, orally once a day 7 days, average ± standard error (N = 12)
Procedure: On the morning of the following day after the 7th administration, blood was collected, and the concentrations of the alanine aminotransferase and the aspartate aminotransferase, which are the markers of hepatic toxicity, in plasma were measured.

Hartley guinea pigs [4] = assay: Influence of Compound X and cerivastatin on change of muscle-deviated enzymes (Example 6); type: in vivo, guinea pig; conditions: for increases in the creatinine phosphokinase and myoglobin in plasma: cerivastatin 1 mg/kg alone or with Compound X 30 mg/kg
Wistar Fatty rats = assay: Lowering effect on plasma triglyceride by use in combination of Compound X and atorvastatin (Example 1); type: in vivo, rat; conditions: 30 mg/kg alone, orally once a day for 8 days, overnight fasting, average ± standard error (N = 6)
Hartley guinea pigs [5] = assay: Lowering effects on plasma cholesterol by use in combination of Compound X and simvastatin (Example 3); type: in vivo, guinea pig; conditions: guinea pigs on 0.05% cholesterol/10% corn oil diet, orally once a day 14 days, average ± standard error (N = 12)
Hartley guinea pigs [6] = assay: Lowering effect on plasma cholesterol by triple combination of Compound X, simvastatin and ezetimibe (Example 7); type: in vivo, guinea pig; conditions: guinea pigs on 0.05% cholesterol/10% corn oil diet, Compound X 30 mg/kg alone, orally once a day 14 days; average ± standard error (N = 6)
[7] = plasma, cerivastatin 1 mg/kg alone, orally once a day 14 days, average ± standard error (N = 16)

With `CC(C)c1c(C(=O)Nc2ccccc2)c(-c2ccccc2)c(-c2ccc(F)cc2)n1CC[C@@H](O)C[C@@H](O)CC(=O)O` [Atorvastatin, atorvastatin] the Total cholesterol level (Hartley guinea pigs [1]; 3 mg/kg alone) was 46.1 ± 3.3 mg/dL, the Total cholesterol level (Hartley guinea pigs [1]; 10 mg/kg alone) was 37.4 ± 4.1 mg/dL and the Total cholesterol level (Hartley guinea pigs [1]; 30 mg/kg alone) was 33.5 ± 2.8 mg/dL. It also gave a Total cholesterol (Hartley guinea pigs [2]) of 32.9 ± 1.5 mg/dL, an Alanine aminotransferase (Hartley guinea pigs [3]) of 48.9 ± 9.7 I.U./L and an Aspartate aminotransferase (Hartley guinea pigs [3]) of 169.0 ± 39.1 I.U./L.

With `COCc1c(C(C)C)nc(C(C)C)c(/C=C/[C@@H](O)C[C@@H](O)CC(=O)O)c1-c1ccc(F)cc1` [Cerivastatin, cerivastatin] the “increases in the creatinine phosphokinase and myoglobin in plasma” value (Hartley guinea pigs [4]; 14 days) was “Significant increases”, the TC (Hartley guinea pigs [4]; cerivastatin 1 mg/kg alone, orally once a day 14 days, average ± standard error (N = 16)) was 13.2 ± 0.8 mg/dL and the CK (creatinine phosphokinase) (Hartley guinea pigs [4]; [7]) was 4070 ± 800 U/L. The “Mb (myoglobin)” value (Hartley guinea pigs [4]; [7]) was 25.7 ± 2.6 ng/mL.

Work on `COc1cccc([C@H]2O[C@H](CC(=O)N3CCC(CC(=O)O)CC3)C(=O)N(CC(C)(C)COC(C)=O)c3ccc(Cl)cc32)c1OC` [Compound X, N-[[(3R,5S)-1-(3-acetoxy-2,2-dimethylpropyl)-7-chloro-5-(2,3-dimethoxyphenyl)-2-oxo-1,2,3,5-tetrahydro-4,1-benzoxazepin-3-yl]acetyl]piperidine-4-acetic acid] yielded a Plasma triglyceride value (Wistar Fatty rats) of 376.5 ± 22.0 mg/dL, a Total cholesterol level (Hartley guinea pigs [1]; 30 mg/kg alone) of 44.4 ± 4.1 mg/dL and a Total cholesterol level (Hartley guinea pigs [5]; 30 mg/kg alone) of 40.2 ± 4.7 mg/dL. For the same compound, the Total cholesterol (Hartley guinea pigs [2]) was 40.1 ± 3.1 mg/dL, the “Image of the liver cell necrosis” value (Hartley guinea pigs [2]; guinea pigs, each drug 30 mg/kg, alone or in combination, 14 days) was “not recognized” and the cholesterol-lowering effect (Hartley guinea pigs [4]; Compound X 30 mg/kg added to cerivastatin 1 mg/kg, 14 days) was “slightly increasing”. For the same compound, the “increases in the creatinine phosphokinase and myoglobin in plasma” value (Hartley guinea pigs [4]; 14 days) was “significantly ameliorated the increases” and the Total cholesterol level (Hartley guinea pigs [6]) was 43.5 ± 4.1 mg/dL.

For `CCC(C)(C)C(=O)O[C@H]1C[C@@H](C)C=C2C=C[C@H](C)[C@H](CC[C@@H]3C[C@@H](O)CC(=O)O3)[C@H]21` [Simvastatin, simvastatin], the Total cholesterol level (Hartley guinea pigs [5]; 10 mg/kg alone) was 41.0 ± 3.6 mg/dL, the Total cholesterol level (Hartley guinea pigs [5]; 30 mg/kg alone) was 43.4 ± 2.2 mg/dL and the Total cholesterol level (Hartley guinea pigs [5]; 100 mg/kg alone) was 31.7 ± 2.6 mg/dL.
